Consider 7 molecules from PubChem BioAssay (NCI).

Several values for one entry are separate records, joined by “and”; a condition that tells them apart may be missing. Equal values may be shown once.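 Interpolation was linear, between the two tested concentrations surrounding the appropriate level; five concentrations were tested over 48 hours in 96-well plates. Here, GI50 denotes the concentration required for 50% inhibition of growth. Definition used: TGI = concentration required for complete inhibition of growth.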

Holding throughout (test): inhibition of tumour cell growth, NCI panel, 48 h
In experiment [1] the test system is HCC-2998 colon.
Experiment [2] has as its system HOP-62 NSCLC.
Experiment [3] relates to HOP-92 NSCLC.
Experiment [4] deals with HT29 colon.
The subject of experiment [5] is MCF7 breast.
For experiment [6], the system named is NCI-H23 lung.
Experiment [7] has as its system RPMI-8226 leukemia.
For experiment [8], the system named is SF-268 CNS.
Experiment [9] has as its system SK-OV-3 ovarian.
Experiment [10] has as its system SW-620 colon.

`CC(=O)NC1C(O[C@H]2C[C@H]3[C@@H]4CC=C5C[C@@H](O)CC[C@]5(C)[C@H]4CC[C@]3(C)[C@H]2[C@H](C)C(=O)CCC(C)C)OCC(O)C1O` (some centres not stated): the GI50 in [1] is 6.46 µM; in experiment [2] it was 2.18 µM; in experiment [3], 5.1 µM; in experiment [4], 5.29 µM; in [5] it was 2440 nM; in [6], 4.59 µM. The GI50 was 593 nM in experiment [7], 2.31 µM in experiment [8], 2.01 µM in [9] and 3.21 µM in experiment [10]. In addition, the TGI was 14.6 µM in experiment [1]; 8.31 µM in experiment [2]; 15.5 µM in experiment [3]; 15.3 µM in experiment [4]; 10.4 µM in experiment [5]; 18.5 µM in experiment [6]. Moreover, the TGI in experiment [7] is 2.06 µM; in [8], 11.2 µM; in [9], 8.39 µM; in experiment [10], 9.78 µM.
For the molecule `Cc1cc(Br)c(NC(=O)c2c(-c3c(Cl)cccc3Cl)noc2C)c(Br)c1`, the GI50 in [1] was > 100 µM; in [2], 30.8 µM; in experiment [3], > 100 µM; in [4], > 100 µM; in [5], > 100000 nM; in experiment [6] it was > 100 µM. Further, the GI50 in [7] was > 100000 nM; in [8] it was > 100 µM; in experiment [9] it was > 100 µM; in [10], > 100 µM. In addition, the TGI in experiment [1], in [2], in [3], in experiment [4], in experiment [5] and in experiment [6] was > 100 µM each time. Besides, the TGI in experiment [7], in experiment [8], in experiment [9] and in experiment [10] was > 100 µM each time.
Turning to `COC12C(COC(=O)NCCO)C3=C(C(=O)C(C)=C(N)C3=O)N1CC1NC12` (configuration not stated), the TGI was 99.3 µM in experiment [1]; 74.7 µM and 139 µM in experiment [2]; 222 µM in experiment [3]; > 264 µM in experiment [4]; 118 µM in experiment [5]; 22.7 µM and 51.3 µM in [6]. Also, the TGI was > 264 µM in experiment [7], 217 µM in experiment [8], > 264 µM in experiment [9] and 110 µM in experiment [10]. The GI50 in experiment [2] was 28.4 µM; in experiment [3], 76.3 µM; in experiment [4], 52.7 µM; in [6] it was 10.3 µM; in experiment [8] it was 32.9 µM; in experiment [9] it was 100 µM. Moreover, the GI50 in [10] is 26.7 µM.
Turning to `Nc1nc(=S)c2ncn(C3OC(COP(=O)(O)O)C(O)C3O)c2[nH]1` (configuration not stated), the GI50 in experiment [1] was 3.29 µM; in experiment [2], 0.447 µM; in experiment [4], 1.2 µM; in experiment [5], 397 nM; in [6], 1.93 µM; in experiment [7], 451 nM. For the same molecule, the GI50 was 2.11 µM in [8], 0.471 µM in experiment [9] and 3.59 µM in experiment [10]. Also, the TGI in experiment [1] is > 100 µM; in experiment [2] it was 12.7 µM; in experiment [4] it was > 100 µM; in experiment [5], > 100 µM; in experiment [6], > 100 µM; in [7], > 100 µM. The results for the TGI in experiment [8], in experiment [9] and in experiment [10] were > 100 µM, 5.09 µM and > 100 µM, respectively.
For `COc1ccccc1Oc1nccc(-c2c(-c3ccc(F)cc3)ncn2C2CCNCC2)n1`, the GI50 in experiment [1] was 11.8 µM; in experiment [2], > 25 µM; in [4], 8.72 µM; in experiment [5], 16000 nM; in experiment [7], > 19300 nM; in experiment [8] it was > 25 µM. In addition, the GI50 in [9] and in [10] was > 25 µM in each case. Further, the TGI in experiment [1], in experiment [2], in [4], in [5], in experiment [7] and in experiment [8] was > 25 µM each time. Moreover, the TGI in experiment [9] and in experiment [10] was > 25 µM in each case.
As to `CN1CCN(c2c(F)cc(NC3=C(Cl)C(=O)c4ncccc4C3=O)cc2F)CC1`, the GI50 was 11.5 µM in [1]; 19.2 µM in experiment [2]; 1.55 µM in experiment [3]; 4.67 µM in [4]; 2040 nM in experiment [5]; 11.8 µM in experiment [6]. The figures for the GI50 in experiment [8], in [9] and in experiment [10] were 14.1 µM, 25.2 µM and 1.76 µM, respectively. In addition, the TGI in [1] was found to be 26.1 µM; in experiment [2], 42.9 µM; in experiment [3] it was 3.22 µM; in experiment [4], 22.5 µM; in experiment [5], 5.35 µM; in experiment [6], 32 µM. Further, the TGI in [8] amounted to 28.3 µM; in [9] it was 72 µM; in [10] it was 3.82 µM.
In the case of `COc1ccc(-c2[nH]c3ccc(OC)cc3c2C=C(C#N)C#N)cc1`, the GI50 in [2] was 3.34 µM; in experiment [3], > 47.9 µM; in [4], 0.404 µM; in experiment [5] it was 382 nM; in [6], 1.25 µM; in experiment [7] it was 2500 nM. Also, the GI50 in [8] is 1.67 µM; in experiment [9] it was 0.731 µM; in [10], 0.568 µM. For the same molecule, the TGI in experiment [2], in experiment [3], in experiment [4], in [5], in experiment [6] and in experiment [7] was > 100 µM in each case. The TGI in experiment [8], in [9] and in experiment [10] was > 100 µM in each case.
